# Activity calls are given as the source filed them.
# How the values were obtained:
# [1] = molecular target: T1, Corticotropin-releasing factor receptor 2/Corticotropin-releasing factor-binding protein (Homo sapiens, UniProt P24387+Q13324); test: Dose Response confirmation of uHTS hits for small molecule antagonists of the CRF-binding protein and CRF-R2 receptor complex.; format: functional; settings: read-out: IC50_Mean
# T1 sequence (Q13324 whole entry): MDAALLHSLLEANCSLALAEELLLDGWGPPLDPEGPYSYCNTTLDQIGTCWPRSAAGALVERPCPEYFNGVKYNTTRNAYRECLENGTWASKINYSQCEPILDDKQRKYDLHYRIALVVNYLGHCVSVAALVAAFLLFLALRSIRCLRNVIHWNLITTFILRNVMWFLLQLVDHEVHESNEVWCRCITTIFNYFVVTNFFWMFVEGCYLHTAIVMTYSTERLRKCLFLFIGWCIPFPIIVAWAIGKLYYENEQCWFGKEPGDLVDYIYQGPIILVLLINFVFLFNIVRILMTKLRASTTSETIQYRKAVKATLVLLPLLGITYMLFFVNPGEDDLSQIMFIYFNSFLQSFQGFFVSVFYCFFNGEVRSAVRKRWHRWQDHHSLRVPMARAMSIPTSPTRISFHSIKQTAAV
# T1 sequence (P24387 whole entry): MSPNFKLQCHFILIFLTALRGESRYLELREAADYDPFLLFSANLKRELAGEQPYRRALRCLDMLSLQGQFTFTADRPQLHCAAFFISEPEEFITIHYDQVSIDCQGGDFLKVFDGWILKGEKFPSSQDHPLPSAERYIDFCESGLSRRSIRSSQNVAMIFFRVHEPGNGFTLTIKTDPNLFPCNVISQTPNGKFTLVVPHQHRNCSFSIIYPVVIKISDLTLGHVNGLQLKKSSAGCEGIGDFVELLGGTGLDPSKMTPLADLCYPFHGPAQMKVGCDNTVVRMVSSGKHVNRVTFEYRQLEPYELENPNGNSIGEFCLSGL
# [2] = molecular target: T2, Short transient receptor potential channel 4 (Mus musculus, UniProt Q9QUQ5); test: mouse TRPC4 channel inhibitors, dose response, cell-based, HEK293 TRPC4/mu-opioid, Fluo-4 calcium (AID 434942); format: functional;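 further: potency of inhibitors blocking the TRPC4 calcium response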
# T2 sequence (Q9QUQ5 whole entry): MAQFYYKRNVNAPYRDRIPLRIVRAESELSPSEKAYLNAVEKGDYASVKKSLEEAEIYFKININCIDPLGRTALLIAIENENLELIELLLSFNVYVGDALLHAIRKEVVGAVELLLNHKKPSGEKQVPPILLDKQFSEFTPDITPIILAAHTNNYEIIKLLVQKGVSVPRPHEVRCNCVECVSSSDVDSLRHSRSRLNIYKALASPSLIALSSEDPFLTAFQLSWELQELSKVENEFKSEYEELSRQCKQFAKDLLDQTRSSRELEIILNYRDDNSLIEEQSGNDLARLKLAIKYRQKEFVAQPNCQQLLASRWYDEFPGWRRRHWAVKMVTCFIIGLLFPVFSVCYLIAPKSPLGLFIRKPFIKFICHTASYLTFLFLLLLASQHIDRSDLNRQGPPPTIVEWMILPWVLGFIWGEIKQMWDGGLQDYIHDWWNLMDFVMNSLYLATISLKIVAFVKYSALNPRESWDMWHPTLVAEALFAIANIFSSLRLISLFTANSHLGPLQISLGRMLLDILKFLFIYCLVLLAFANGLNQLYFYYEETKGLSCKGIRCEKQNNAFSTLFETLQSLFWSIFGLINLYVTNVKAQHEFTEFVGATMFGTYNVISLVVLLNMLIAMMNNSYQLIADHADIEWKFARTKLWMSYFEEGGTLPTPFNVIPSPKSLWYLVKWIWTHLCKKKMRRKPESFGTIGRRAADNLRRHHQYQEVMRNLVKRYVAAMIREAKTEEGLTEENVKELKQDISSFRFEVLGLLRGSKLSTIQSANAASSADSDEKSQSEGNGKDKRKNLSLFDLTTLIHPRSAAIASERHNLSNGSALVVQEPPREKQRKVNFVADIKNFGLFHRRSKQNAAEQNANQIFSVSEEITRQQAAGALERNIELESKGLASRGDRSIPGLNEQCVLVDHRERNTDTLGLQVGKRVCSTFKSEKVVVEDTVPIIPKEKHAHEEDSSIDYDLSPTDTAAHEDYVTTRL
# [3] = molecular target: T1, Corticotropin-releasing factor receptor 2/Corticotropin-releasing factor-binding protein; test: activators of CRF receptor 2 with binding protein – uHTS hits, confirmation (AID 602473); format: functional; settings: read-out: EC50_Mean
# [4] = molecular target: FAD-linked sulfhydryl oxidase ALR (Homo sapiens, UniProt P55789); test: inhibitors of human ALR sulfhydryl oxidase, dose response, biochemical, H2O2 detection, luminescence, cherry-pick (AID 493248)
# Chain of FAD-linked sulfhydryl oxidase ALR (P55789 whole entry): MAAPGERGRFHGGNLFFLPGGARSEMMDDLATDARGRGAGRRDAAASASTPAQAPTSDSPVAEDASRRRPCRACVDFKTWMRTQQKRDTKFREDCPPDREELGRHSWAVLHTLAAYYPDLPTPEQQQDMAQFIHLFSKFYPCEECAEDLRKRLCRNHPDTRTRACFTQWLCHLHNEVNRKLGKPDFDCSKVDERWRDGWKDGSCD
# [5] = molecular target: T3, Rac GTPase-activating protein 1 (Homo sapiens, UniProt Q9H0H5); test: MgcRacGAP GTPase-activating activity inhibitors, confirmation, biochemical, ADP Hunter fluorescence, primary and confirmatory (AID 624330); format: functional
# T3 sequence (Q9H0H5 whole entry): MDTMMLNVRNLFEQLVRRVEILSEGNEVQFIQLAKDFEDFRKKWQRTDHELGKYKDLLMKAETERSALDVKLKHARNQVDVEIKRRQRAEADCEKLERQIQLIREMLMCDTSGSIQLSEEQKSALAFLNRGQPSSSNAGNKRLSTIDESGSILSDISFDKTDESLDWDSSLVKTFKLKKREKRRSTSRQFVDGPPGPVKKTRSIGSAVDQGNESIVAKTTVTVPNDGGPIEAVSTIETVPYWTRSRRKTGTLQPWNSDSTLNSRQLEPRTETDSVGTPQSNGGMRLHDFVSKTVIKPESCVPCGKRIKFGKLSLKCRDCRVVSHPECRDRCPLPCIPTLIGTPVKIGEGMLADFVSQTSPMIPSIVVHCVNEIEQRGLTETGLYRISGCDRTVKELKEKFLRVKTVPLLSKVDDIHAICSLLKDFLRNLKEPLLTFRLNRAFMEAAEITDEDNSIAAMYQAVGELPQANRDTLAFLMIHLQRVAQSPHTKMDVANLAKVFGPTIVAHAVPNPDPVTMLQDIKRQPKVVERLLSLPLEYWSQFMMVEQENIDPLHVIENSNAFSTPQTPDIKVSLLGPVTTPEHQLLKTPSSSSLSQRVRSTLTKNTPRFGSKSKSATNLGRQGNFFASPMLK
# [6] = molecular target: Induced myeloid leukemia cell differentiation protein Mcl-1 (Homo sapiens, UniProt Q07820); format: functional
# Chain of Induced myeloid leukemia cell differentiation protein Mcl-1 (Q07820 whole entry): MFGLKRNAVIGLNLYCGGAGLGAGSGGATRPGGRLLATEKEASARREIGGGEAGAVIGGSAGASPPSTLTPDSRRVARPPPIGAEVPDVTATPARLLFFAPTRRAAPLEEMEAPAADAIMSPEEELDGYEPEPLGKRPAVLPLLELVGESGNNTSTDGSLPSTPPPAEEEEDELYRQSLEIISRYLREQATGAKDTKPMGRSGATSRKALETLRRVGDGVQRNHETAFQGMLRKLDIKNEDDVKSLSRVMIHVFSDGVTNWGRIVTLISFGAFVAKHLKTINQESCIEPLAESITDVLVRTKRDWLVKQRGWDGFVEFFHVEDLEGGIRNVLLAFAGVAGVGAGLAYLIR
# Genome polyprotein = Genome polyprotein (dengue virus type 2, UniProt P29990); test: Dengue-2 NS5 methyltransferase inhibitors, primary screen, biochemical, confirmation dose response (AID 588689); format: functional
# Chain of Genome polyprotein (P29990 2492-3391 limits assumed): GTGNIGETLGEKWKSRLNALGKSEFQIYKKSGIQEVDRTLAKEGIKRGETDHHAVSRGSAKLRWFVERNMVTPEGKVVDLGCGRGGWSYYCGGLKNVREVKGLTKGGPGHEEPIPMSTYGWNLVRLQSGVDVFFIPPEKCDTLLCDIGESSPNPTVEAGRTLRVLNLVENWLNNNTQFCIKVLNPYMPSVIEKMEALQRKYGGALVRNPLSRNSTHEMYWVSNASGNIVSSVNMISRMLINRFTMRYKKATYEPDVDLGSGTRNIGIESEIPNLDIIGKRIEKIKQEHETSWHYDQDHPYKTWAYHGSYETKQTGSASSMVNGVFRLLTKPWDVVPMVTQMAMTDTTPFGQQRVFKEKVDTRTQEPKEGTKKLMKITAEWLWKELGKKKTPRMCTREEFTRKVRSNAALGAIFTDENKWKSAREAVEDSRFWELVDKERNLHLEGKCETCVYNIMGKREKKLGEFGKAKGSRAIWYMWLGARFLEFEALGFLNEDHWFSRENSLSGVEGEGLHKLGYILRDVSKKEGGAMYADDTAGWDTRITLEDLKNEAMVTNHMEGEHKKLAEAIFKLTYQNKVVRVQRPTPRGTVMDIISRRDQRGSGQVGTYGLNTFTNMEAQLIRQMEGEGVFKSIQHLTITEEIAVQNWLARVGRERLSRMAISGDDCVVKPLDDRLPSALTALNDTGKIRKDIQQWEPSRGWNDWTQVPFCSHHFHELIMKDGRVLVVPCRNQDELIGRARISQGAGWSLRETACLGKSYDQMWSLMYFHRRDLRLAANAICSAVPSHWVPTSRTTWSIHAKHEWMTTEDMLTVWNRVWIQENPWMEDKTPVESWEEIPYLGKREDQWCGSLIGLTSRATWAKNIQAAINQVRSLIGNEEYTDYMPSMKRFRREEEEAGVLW
# Aminopeptidase N = molecular target: T4, Aminopeptidase N (Plasmodium falciparum FcB1/Columbia, UniProt O96935); test: P. falciparum M1AAP inhibitors, biochemical, fluorogenic H-Leu-NHMec substrate, 1536-well (AID 1445); parameters: species or system Plasmodium falciparum 3D7, 3D7
# T4 sequence (O96935 whole entry): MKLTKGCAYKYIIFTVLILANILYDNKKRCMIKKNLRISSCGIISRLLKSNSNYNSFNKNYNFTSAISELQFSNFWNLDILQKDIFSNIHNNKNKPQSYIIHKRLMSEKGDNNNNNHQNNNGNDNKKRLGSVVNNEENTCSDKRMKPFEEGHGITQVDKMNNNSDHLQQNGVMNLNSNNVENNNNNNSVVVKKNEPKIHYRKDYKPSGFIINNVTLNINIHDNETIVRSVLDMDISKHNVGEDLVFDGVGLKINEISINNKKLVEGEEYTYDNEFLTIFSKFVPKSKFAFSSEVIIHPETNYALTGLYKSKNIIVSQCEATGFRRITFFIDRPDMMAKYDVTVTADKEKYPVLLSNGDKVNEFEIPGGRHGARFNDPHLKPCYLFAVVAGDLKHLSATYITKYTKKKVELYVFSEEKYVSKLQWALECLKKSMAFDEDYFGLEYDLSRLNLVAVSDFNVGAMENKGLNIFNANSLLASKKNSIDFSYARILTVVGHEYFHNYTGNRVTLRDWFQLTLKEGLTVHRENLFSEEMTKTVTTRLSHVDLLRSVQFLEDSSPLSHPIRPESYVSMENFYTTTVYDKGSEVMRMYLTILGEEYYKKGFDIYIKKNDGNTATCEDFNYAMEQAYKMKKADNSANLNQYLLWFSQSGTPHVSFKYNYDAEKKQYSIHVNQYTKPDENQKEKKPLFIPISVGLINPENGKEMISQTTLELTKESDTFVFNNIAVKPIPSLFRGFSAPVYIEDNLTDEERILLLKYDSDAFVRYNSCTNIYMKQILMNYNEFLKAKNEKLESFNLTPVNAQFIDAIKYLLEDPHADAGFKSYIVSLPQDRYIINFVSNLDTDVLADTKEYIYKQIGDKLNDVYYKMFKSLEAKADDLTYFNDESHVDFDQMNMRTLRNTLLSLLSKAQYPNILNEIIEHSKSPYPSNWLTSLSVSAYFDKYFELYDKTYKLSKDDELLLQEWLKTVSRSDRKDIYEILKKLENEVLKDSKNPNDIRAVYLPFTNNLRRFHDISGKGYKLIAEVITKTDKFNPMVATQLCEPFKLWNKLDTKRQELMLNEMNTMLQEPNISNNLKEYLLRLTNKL
# Nonstructural protein 1 = Nonstructural protein 1 (Influenza A virus, UniProt Q194T2); format: functional, Influenza A virus (A/California/07/2009(H1N1))
# Chain of Nonstructural protein 1 (Q194T2 whole entry): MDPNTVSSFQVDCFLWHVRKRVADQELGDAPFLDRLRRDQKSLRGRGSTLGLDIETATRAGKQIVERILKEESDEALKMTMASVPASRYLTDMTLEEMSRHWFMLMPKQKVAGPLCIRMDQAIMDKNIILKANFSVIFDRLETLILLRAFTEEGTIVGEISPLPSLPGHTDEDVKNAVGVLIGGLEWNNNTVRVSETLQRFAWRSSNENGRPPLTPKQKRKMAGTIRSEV
# Leucine aminopeptidase = molecular target: T5, Leucine aminopeptidase (Plasmodium falciparum 3D7, UniProt Q8IL11); test: P. falciparum M17LAP inhibitors, primary screen, biochemical, fluorogenic H-Leu-NHMec substrate, 1536-well (AID 1619); format: functional
# T5 sequence (Q8IL11 whole entry): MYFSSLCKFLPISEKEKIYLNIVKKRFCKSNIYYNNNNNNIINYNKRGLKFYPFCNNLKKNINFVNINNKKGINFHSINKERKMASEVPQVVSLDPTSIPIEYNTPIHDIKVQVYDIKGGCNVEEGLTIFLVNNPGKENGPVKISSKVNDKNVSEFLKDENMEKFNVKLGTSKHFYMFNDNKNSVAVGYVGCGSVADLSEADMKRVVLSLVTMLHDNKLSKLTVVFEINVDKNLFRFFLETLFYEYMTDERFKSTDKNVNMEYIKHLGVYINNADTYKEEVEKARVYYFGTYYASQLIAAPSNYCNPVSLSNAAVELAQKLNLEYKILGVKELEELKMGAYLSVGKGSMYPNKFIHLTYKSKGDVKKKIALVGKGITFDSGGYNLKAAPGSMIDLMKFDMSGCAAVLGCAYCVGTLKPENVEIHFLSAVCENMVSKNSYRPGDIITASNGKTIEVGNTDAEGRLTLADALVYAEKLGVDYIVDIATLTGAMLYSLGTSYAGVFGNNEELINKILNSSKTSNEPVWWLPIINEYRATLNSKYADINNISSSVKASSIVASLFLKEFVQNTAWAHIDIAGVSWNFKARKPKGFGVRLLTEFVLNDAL
Structure (SMILES),EC50 [2],AC50 [4],also measured
c1ccc2c(c1)nnn2-c1ncnc2sc3c(c12)CCCC3,6.68 µM (active),–,IC50 [1]: > 47.1 µM (inactive); EC50 [3]: > 53 µM (inactive)
O=C(Nc1ccc(O)cc1)c1ccc(C(=O)c2ccccc2)o1,–,2.25 µM (active),IC50 [5]: 19.5 µM (active)
CCc1cc(C(=O)c2ccc(OC)cc2)c(NC(=O)CC(C)(C)CC(=O)O)s1,–,4.26 µM (active),–
C/C(=N/NS(=O)(=O)c1ccc(Br)cc1)c1ccc(C)o1,–,15.4 µM (active),–
CCN(CC)c1ccc(NC(=O)CN2CCN(CC(=O)Nc3ccccc3F)CC2)cc1,–,1.18 µM (active),–
CC(NC(=O)c1cccc(N(C)C)c1)c1ccc(-n2ccnc2)cc1 (configuration not stated),–,9.59 µM (active),–
COc1ccccc1N(C(=O)c1snc(C(N)=O)c1N)C(C(=O)NCc1ccccc1)c1ccc(C)o1 (configuration not stated),0.944 µM (active),–,–
COc1ccc(NC(=S)NNc2ccc(S(=O)(=O)Nc3ccccc3C(=O)O)cc2[N+](=O)[O-])cc1,–,–,IC50 [6]: 3.37 µM (not active); IC50 (Genome polyprotein): 15.8 µM (active); IC50 (Aminopeptidase N): 4.17 µM (active); IC50 (Nonstructural protein 1): 31.7 µM (active); IC50 (Leucine aminopeptidase): 4.33 µM (active)
CC(CN(C)C)CN1c2ccccc2Sc2ccccc21 (configuration not stated),–,1.25 µM (active),–
COc1ccccc1CNCc1ccc(OC)c2ccccc12,5.31 µM (active),–,–
